# Source: US20120202690A1, “HERBICIDAL COMPOUNDS” (SYNGENTA LIMITED, priority 2009, published 2012)
# How the values were obtained:
# Format in all cases: in vivo
# [1] = test system: Alopecurus myosuroides (ALOMY); test: Post-emergence biological efficacy, glasshouse, 500 or 1000 g/ha, evaluated after 13 days (100=total damage to plant; 0=no damage to plant); conditions: Alopecurus myosuroides, 312 h, rate 1,000 g/ha, read-out: Percentage damage caused to weed species, post-emergence, ALOMY
# Experimental: (§1) Seeds of Alopecurus myosuroides (ALOMY), Setaria faberi (SETFA), Echinochloa […]), Solanum nigrum (SOLNI), Amaranthus retroflexus (AMARE) and Ipomoea hederaceae (IPOHE) were sown in standard soil in pots. […] The test plants were then grown on under controlled conditions in a glasshouse (at 24/16° C., day/night; 14 hours light; 65% humidity) and watered twice daily. […]
# [2] = test system: Echinochloa crusgaffi (ECHCG); test: as above; conditions: Echinochloa, 312 h, rate 1,000 g/ha, read-out: Percentage damage caused to weed species, post-emergence, ECHCG
# Experimental: as §1
# [3] = test system: Amaranthus retroflexus (AMARE); test: as above; conditions: Amaranthus retroflexus, 312 h, rate 1,000 g/ha, read-out: Percentage damage caused to weed species, post-emergence, AMARE
# Experimental: as §1
# [4] = test system: Setaria faberi (SETFA); test: as above; conditions: Setaria faberi, 312 h, rate 1,000 g/ha, read-out: Percentage damage caused to weed species, post-emergence, SETFA
# Experimental: as §1
# [5] = test system: Ipomoea hederaceae (IPOHE); test: as above; conditions: Ipomoea, 312 h, rate 1,000 g/ha, read-out: Percentage damage caused to weed species, post-emergence, IPOHE
# Experimental: as §1
# [6] = test system: Solanum nigrum (SOLNI); test: as above; conditions: Solanum nigrum, 312 h, rate 1,000 g/ha, read-out: Percentage damage caused to weed species, post-emergence, SOLNI
# Experimental: as §1
# [7] = test system: Alopecurus myosuroides (ALOMY); test: Pre-emergence biological efficacy, glasshouse, 1000 g/ha, evaluated after 13 days (100=total damage to plant; 0=no damage to plant); conditions: Alopecurus myosuroides, 312 h, rate 1,000 g/ha, read-out: Percentage damage caused to weed species, pre-emergence, ALOMY
# Experimental: (§2) Seeds of Alopecurus myosuroides (ALOMY), Setaria faberi (SETFA), Echinochloa crus-galli (ECHCG), Solanum nigrum (SOLNI), Amaranthus retroflexus (AMARE) and Ipomoea hederaceae (IPOHE) were sown in standard soil in pots. […] The test plants were then grown under controlled conditions in the glasshouse (at 24/16° C., day/night; 14 hours light; 65% humidity) and watered twice daily. […]
# [8] = test system: Amaranthus retroflexus (AMARE); test: as above; conditions: Amaranthus retroflexus, 312 h, rate 1,000 g/ha, read-out: Percentage damage caused to weed species, pre-emergence, AMARE
# Experimental: as §2
# [9] = test system: Setaria faberi (SETFA); test: as above; conditions: Setaria faberi, 312 h, rate 1,000 g/ha, read-out: Percentage damage caused to weed species, pre-emergence, SETFA
# Experimental: as §2
# [10] = test system: Ipomoea hederaceae (IPOHE); test: as above; conditions: Ipomoea, 312 h, rate 1,000 g/ha, read-out: Percentage damage caused to weed species, pre-emergence, IPOHE
# Experimental: as §2
# [11] = test system: Echinochloa crus-galli (ECHCG); test: as above; conditions: Echinochloa crus-galli, 312 h, rate 1,000 g/ha, read-out: Percentage damage caused to weed species, pre-emergence, ECHCG
# Experimental: as §2
# [12] = test system: Solanum nigrum (SOLNI); test: as above; conditions: Solanum nigrum, 312 h, rate 1,000 g/ha, read-out: Percentage damage caused to weed species, pre-emergence, SOLNI
# Experimental: as §2
compound,measurement,setting,value
"COc1c(Cl)ccc(-c2nc(C(=O)OC(C)C)c3c(C)c[nH]c3n2)c1F [Compound 1-78, 2-(4-Chloro-2-fluoro-3-methoxyphenyl)-4-isopropoxycarbonyl-5-methyl-7H-pyrrolo[2,3-d]pyrimidine]",pest or weed control at 1000 g/ha,[1],0%
same,pest or weed control at 1000 g/ha,[2],0%
same,pest or weed control at 1000 g/ha,[3],0%
same,pest or weed control at 1000 g/ha,[4],0%
same,pest or weed control at 1000 g/ha,[5],70%
same,pest or weed control at 1000 g/ha,[6],60%
same,pest or weed control at 1000 g/ha,[7],0%
same,pest or weed control at 1000 g/ha,[8],50%
same,pest or weed control at 1000 g/ha,[9],0%
same,pest or weed control at 1000 g/ha,[10],20%
same,pest or weed control at 1000 g/ha,[11],0%
same,pest or weed control at 1000 g/ha,[12],40%
"CCCCCC(C)OC(=O)c1nc(-c2ccc(Cl)c(OC)c2F)nc2[nH]cc(C)c12 (stereo not drawn) [Compound 1-79, 2-(4-Chloro-2-fluoro-3-methoxyphenyl)-4-(hept-2-yloxycarbonyl)-5-methyl-7H-pyrrolo[2,3-d]pyrimidine]",pest or weed control at 1000 g/ha,[1],0%
same,pest or weed control at 1000 g/ha,[2],0%
same,pest or weed control at 1000 g/ha,[3],10%
same,pest or weed control at 1000 g/ha,[4],0%
same,pest or weed control at 1000 g/ha,[5],20%
same,pest or weed control at 1000 g/ha,[6],10%
same,pest or weed control at 1000 g/ha,[7],0%
same,pest or weed control at 1000 g/ha,[8],0%
same,pest or weed control at 1000 g/ha,[9],0%
same,pest or weed control at 1000 g/ha,[10],0%
same,pest or weed control at 1000 g/ha,[11],0%
same,pest or weed control at 1000 g/ha,[12],0%
"C=CCOC(=O)c1nc(-c2ccc(Cl)c(OC)c2F)nc2[nH]cc(C)c12 [Compound 1-80, 2-(4-Chloro-2-fluoro-3-methoxyphenyl)-5-methyl-4-(prop-2-enyloxycarbonyl)-7H-pyrrolo[2,3-d]pyrimidine]",pest or weed control at 1000 g/ha,[1],0%
same,pest or weed control at 1000 g/ha,[2],10%
same,pest or weed control at 1000 g/ha,[3],60%
same,pest or weed control at 1000 g/ha,[4],0%
same,pest or weed control at 1000 g/ha,[5],40%
same,pest or weed control at 1000 g/ha,[6],80%
same,pest or weed control at 1000 g/ha,[7],0%
same,pest or weed control at 1000 g/ha,[8],0%
same,pest or weed control at 1000 g/ha,[9],0%
same,pest or weed control at 1000 g/ha,[10],0%
same,pest or weed control at 1000 g/ha,[11],0%
same,pest or weed control at 1000 g/ha,[12],0%
"CCCCOCCOC(=O)c1nc(-c2ccc(Cl)c(OC)c2F)nc2[nH]cc(C)c12 [Compound 1-83, 4-[(2-n-Butoxy)-ethoxycarbonyl]-2-(4-chloro-2-fluoro-3-methoxyphenyl)-5-methy-7H-pyrrolo[2,3-d]pyrimidine]",pest or weed control at 1000 g/ha,[1],0%
same,pest or weed control at 1000 g/ha,[2],10%
same,pest or weed control at 1000 g/ha,[3],70%
same,pest or weed control at 1000 g/ha,[4],10%
same,pest or weed control at 1000 g/ha,[5],40%
same,pest or weed control at 1000 g/ha,[6],70%
same,pest or weed control at 1000 g/ha,[7],0%
same,pest or weed control at 1000 g/ha,[8],40%
same,pest or weed control at 1000 g/ha,[9],0%
same,pest or weed control at 1000 g/ha,[10],20%
same,pest or weed control at 1000 g/ha,[11],0%
same,pest or weed control at 1000 g/ha,[12],30%
"CCCCOCC(C)OC(=O)c1nc(-c2ccc(Cl)c(OC)c2F)nc2[nH]cc(C)c12 (stereo not drawn) [Compound 1-84, 4-[(1-n-Butoxy)-prop-2-yloxycarbonyl]-2-(4-chloro-2-fluoro-3-methoxyphenyl)-5-methyl-7H-pyrrolo[2,3-d]pyrimidne]",pest or weed control at 1000 g/ha,[1],10%
same,pest or weed control at 1000 g/ha,[2],0%
same,pest or weed control at 1000 g/ha,[3],60%
same,pest or weed control at 1000 g/ha,[4],10%
same,pest or weed control at 1000 g/ha,[5],40%
same,pest or weed control at 1000 g/ha,[6],70%
same,pest or weed control at 1000 g/ha,[7],10%
same,pest or weed control at 1000 g/ha,[8],20%
same,pest or weed control at 1000 g/ha,[9],10%
same,pest or weed control at 1000 g/ha,[10],70%
same,pest or weed control at 1000 g/ha,[11],10%
same,pest or weed control at 1000 g/ha,[12],40%
"COCCOCCOC(=O)c1nc(-c2ccc(Cl)c(OC)c2F)nc2[nH]cc(C)c12 [Compound 1-85, 2-(4-Chloro-2-fluoro-3-methoxyphenyl)-4-{2-[(2-methoxy)-ethoxy]-ethoxycarbonyl}-5-methyl-7H-pyrrolo[2,3-d]pyrimidine]",pest or weed control at 1000 g/ha,[1],10%
same,pest or weed control at 1000 g/ha,[2],60%
same,pest or weed control at 1000 g/ha,[3],100%
same,pest or weed control at 1000 g/ha,[4],40%
same,pest or weed control at 1000 g/ha,[5],40%
same,pest or weed control at 1000 g/ha,[6],90%
same,pest or weed control at 1000 g/ha,[7],20%
same,pest or weed control at 1000 g/ha,[8],100%
same,pest or weed control at 1000 g/ha,[9],0%
same,pest or weed control at 1000 g/ha,[10],10%
same,pest or weed control at 1000 g/ha,[11],0%
same,pest or weed control at 1000 g/ha,[12],70%
